Read-outs that look alike come from different tables or passages of the source.
What was measured:
[1] = system: Huh-7 cells containing HCV Coni subgenomic replicon (GS4.1 cells); assay: HCV replicon assay; assay type: cell-based; settings: read-out: HCV Replicon EC50
Procedure: (§1) Huh-7 cells containing HCV Coni subgenomic replicon (GS4.1 cells), (C. Seeger; Fox Chase University, Philadelphia, Pa., USA), are grown in Dulbecco's Modified Eagle Medium (DMEM) supplemented with 10% fetal bovine serum (FBS), 2 mM L-glutamine, 110 mg/L sodium pyruvate, 1× non-essential amino acids, 100 U/mL penicillin-streptomycin and 0.5 mg/mL G418 (Invitrogen). For dose-response testing, the cells are seeded in 96-well plates at 7.5×10^3 cells/well in a volume of 50 μL and incubated at 37° C./5% CO2. Three hours after plating, 50 μL of ten 2-fold serial dilutions of compounds (highest concentration, 75 μM) are added and cell cultures were incubated at 37° C./5% CO2 in the presence of 0.5% DMSO. Alternatively, compounds are tested at a single concentration of 15 μM. In all cases, Huh-7 cells lacking the HCV replicon served as negative control. The cells are incubated in the presence of compounds for 72 hours after which they were monitored for expression of the NS4A protein by enzyme-linked immunosorbent assay (ELISA). For this, the plates were then fixed for 1 min with 1:1 acetone:methanol, washed twice with phosphate-buffered saline (PBS), 0.1% Tween 20, blocked for 1 hour at room temperature with TNE buffer containing 10% FBS and then incubated for 2 h at 37° C. with the anti-NS4A mouse monoclonal antibody A-236 (ViroGen) diluted in the same buffer. After washing three times with PBS, 0.1% Tween 20, the cells are incubated 1 hour at 37° C. with anti-mouse immunoglobulin G-peroxidase conjugate in TNE, 10% FBS. After washing as described above, the reaction is developed with O-phenylenediamine (Zymed). The reaction is stopped after 30 minutes with […] and the absorbance is read at 492 nm using a Sunrise Tecan spectrophotometer. EC50 values are determined from the % inhibition versus concentration data using a sigmoidal non-linear regression analysis based on four parameters with Tecan Magellan software. When screening at a single concentration, the results are expressed as % inhibition at 15 μM. For cytotoxicity evaluation, GS4.1 cells are treated with compounds as described above and cellular viability was monitored using a Cell Titer 96 AQueous One Solution Cell Proliferation Assay (Promega). CC50 values are determined from the % cytotoxicity versus concentration data with Tecan Magellan software as described above.
Compounds presented in the table below were assayed according to the replicon assay described above.

[2] = Cytotoxicity evaluation in GS4.1 cells (Cell Titer 96 AQueous One Solution Cell Proliferation Assay); assay type: cell-based; settings: human, cellular viability, treated as in replicon assay, read-out: HCV Replicon CC50
Procedure: as §1

[3] = Hepatitis C virus, Huh-7, 72 h, GS4.1 cells, 72 hours incubation, NS4A expression by ELISA

SMILES	EC50 [1, 3] [nM]	CC50 at 72 h [2] [nM]	EC50 ([1]; Hepatitis C virus, Huh-7, 72 h) [nM]	EC50 ([1]; GS4.1 cells, 72 hours incubation, NS4A expression by ELISA) [nM]
COC(=O)C(CC(C)C)NP(=O)(NC(CC(C)C)C(=O)OC)OC[C@H]1O[C@@H](n2cnc3c(OC)nc(N)nc32)[C@@](C)(O)C1O (stereo in doubt) [Compound 3]	100 to 1000	> 75000	–	–
COc1nc(N)nc2c1ncn2[C@@H]1O[C@H](COP(=O)(NC(CC(C)C)C(=O)OC(C)C)NC(CC(C)C)C(=O)OC(C)C)C(O)C1(C)O (stereo in doubt) [Compound 12]	100 to 1000	> 75000	–	–
CCOC(=O)C(Cc1ccccc1)NP(=O)(NC(Cc1ccccc1)C(=O)OCC)OC[C@H]1O[C@@H](n2cnc3c(OC)nc(N)nc32)C(C)(O)C1O (stereo in doubt) [Compound 16]	< 100	≤ 75000	–	–
COC(=O)C(CC(C)C)NP(=O)(NC(CC(C)C)C(=O)OC)OC[C@H]1O[C@@H](n2cnc3c(OC)nc(N)nc32)[C@@]2(C)OC(=O)OC12 (some centres unmarked) [Compound 4]	< 100	> 75000	–	–
CCOC(=O)C(CC(C)C)NP(=O)(NC(CC(C)C)C(=O)OCC)OC[C@H]1O[C@@H](n2cnc3c(NC4CC4)nc(N)nc32)C(C)(O)C1O (some centres unmarked) [Compound 6]	< 100	> 75000	–	–
COC(=O)C(CC(C)C)NP(=O)(NC(CC(C)C)C(=O)OC)OC[C@H]1O[C@@H](n2cnc3c(NC4CC4)nc(N)nc32)C(C)(O)C1O (some centres unmarked) [Compound 8]	100 to 1000	> 75000	–	–
COc1nc(N)nc2c1ncn2[C@@H]1O[C@H](COP(=O)(NC(Cc2ccccc2)C(=O)OC(C)C)NC(Cc2ccccc2)C(=O)OC(C)C)C(O)C1(C)O (some centres unmarked) [Compound 13]	100 to 1000	≤ 75000	–	–
C#CC1(F)C(O)[C@@H](COP(=O)(NC(CC(C)C)C(=O)OCC)NC(CC(C)C)C(=O)OCC)O[C@H]1n1cnc2c(=O)[nH]c(N)nc21 (some centres unmarked) [Compound 22]	> 10000	> 75000	–	–
C#CC1(F)C(O)[C@@H](COP(=O)(NC(CC(C)C)C(=O)OC)NC(CC(C)C)C(=O)OC)O[C@H]1n1cnc2c(=O)[nH]c(N)nc21 (some centres unmarked) [Compound 23]	> 10000	> 75000	–	–
CCOC(=O)[C@@H](NP(=O)(N[C@H](C(=O)OCC)c1ccccc1)OC[C@H]1O[C@@H](n2cnc3c(NC4CC4)nc(N)nc32)C(C)(O)C1O)c1ccccc1 (some centres unmarked) [Compound 30]	1000 to 10000	> 75000	–	–
CCOC(=O)[C@H](C)NP(=O)(N[C@@H](C)C(=O)OCC)OC[C@H]1O[C@@H](n2cnc3c(NC4CC4)nc(N)nc32)[C@@](C)(O)C1O (some centres unmarked) [Compound 31]	100 to 1000	> 75000	–	–
CCOC(=O)[C@H](Cc1ccccc1)NP(=O)(N[C@@H](Cc1ccccc1)C(=O)OCC)OC[C@H]1O[C@@H](n2cnc3c(NC4CC4)nc(N)nc32)[C@@](C)(O)C1O (some centres unmarked) [Compound 32]	< 100	> 75000	–	–
CCCOc1nc(N)nc2c1ncn2[C@@H]1O[C@H](COP(=O)(N[C@@H](CC(C)C)C(=O)OCC)N[C@@H](CC(C)C)C(=O)OCC)C(O)C1(C)O (some centres unmarked) [Compound 33]	< 100	≤ 75000	–	–
CCOC(=O)[C@H](CC(C)C)NP(=O)(N[C@@H](CC(C)C)C(=O)OCC)OC[C@H]1O[C@@H](n2cnc3c(N4CCOCC4)nc(N)nc32)C(C)(O)C1O (some centres unmarked) [Compound 34]	100 to 1000	> 75000	–	–
CCOC(=O)[C@H](CC(C)C)NP(=O)(N[C@@H](CC(C)C)C(=O)OCC)OC[C@H]1O[C@@H](n2cnc3c(N(C)C)nc(N)nc32)C(C)(O)C1O (some centres unmarked) [Compound 35]	< 100	> 75000	–	–
CCOC(=O)[C@H](CC(C)C)NP(=O)(N[C@@H](CC(C)C)C(=O)OCC)OC[C@H]1O[C@@H](n2cnc3c(N4CCCC4)nc(N)nc32)C(C)(O)C1O (some centres unmarked) [Compound 36]	< 100	> 75000	–	–
CCOC(=O)[C@H](CC(C)C)NP(=O)(N[C@@H](CC(C)C)C(=O)OCC)OC[C@H]1O[C@@H](n2cnc3c(=O)[nH]c(N)nc32)C(C)(O)C1O (some centres unmarked) [Compound 37]	1000 to 10000	> 75000	–	–

SMILES	EC50 [1, 3] [nM]	CC50 at 72 h [2] [nM]	EC50 ([1]; Hepatitis C virus, Huh-7, 72 h) [nM]	EC50 ([1]; GS4.1 cells, 72 hours incubation, NS4A expression by ELISA) [nM]
CCOC(=O)[C@H](CC(C)C)NP(=O)(N[C@@H](CC(C)C)C(=O)OCC)OC[C@H]1O[C@@H](n2cnc3c(NC4CCCC4)nc(N)nc32)C(C)(O)C1O (some centres unmarked) [Compound 38]	< 100	≤ 75000	–	–
CCCOC(=O)[C@H](CC(C)C)NP(=O)(N[C@@H](CC(C)C)C(=O)OCCC)OC[C@H]1O[C@@H](n2cnc3c(OC)nc(N)nc32)[C@@](C)(O)C1O (some centres unmarked) [Compound 43]	< 100	≤ 75000	–	–
CCCCOC(=O)[C@H](CC(C)C)NP(=O)(N[C@@H](CC(C)C)C(=O)OCCCC)OC[C@H]1O[C@@H](n2cnc3c(OC)nc(N)nc32)[C@@](C)(O)C1O (some centres unmarked) [Compound 44]	< 100	≤ 75000	–	–
C#CC1(F)C(O)[C@@H](COP(=O)(NCC(=O)OCC)NCC(=O)OCC)O[C@H]1n1cnc2c(=O)[nH]c(N)nc21 (some centres unmarked) [Compound 48]	1000 to 10000	> 75000	–	–
CCOC(=O)[C@H](CC(C)C)NP(=O)(N[C@@H](CC(C)C)C(=O)OCC)OC[C@H]1O[C@@H](n2ccc(OC)nc2=O)[C@](C)(O)[C@@H]1O [Compound 55]	100 to 1000	> 75000	–	–
COc1ccn([C@@H]2O[C@H](COP(=O)(NCc3ccccc3)OCCSC(=O)C(C)(C)CO)[C@@H](O)[C@@]2(C)O)c(=O)n1 (some centres unmarked) [Compound 56]	< 100	> 75000	–	–
COc1nc(N)nc2c1ncn2[C@@H]1O[C@H](COP(=O)(NC(C)C)OCCSC(=O)C(C)(C)CO)C(O)C1(C)O (some centres unmarked) [Compound 57]	–	–	100 to 1000	–
COc1nc(N)nc2c1ncn2[C@@H]1O[C@H](COP(=O)(NCc2ccccc2)OCCSC(=O)C(C)(C)CO)C(O)C1(C)O (some centres unmarked) [Compound 57]	–	> 75000	< 100	–
CCOC(=O)[C@@H](NP(=O)(N[C@@H](C(=O)OCC)C(C)C)OC[C@H]1O[C@@H](n2cnc3c(OC)nc(N)nc32)C(C)(O)C1O)C(C)C (some centres unmarked) [Compound 58]	< 100	> 75000	–	–
CCOC(=O)[C@@H](NP(=O)(N[C@@H](C(=O)OCC)c1ccccc1)OC[C@H]1O[C@@H](n2cnc3c(OC)nc(N)nc32)C(C)(O)C1O)c1ccccc1 (some centres unmarked) [Compound 59]	1000 to 10000	> 75000	–	–
COC(=O)C1CCCN1P(=O)(OC[C@H]1O[C@@H](n2cnc3c(OC)nc(N)nc32)C(C)(O)C1O)N1CCCC1C(=O)OC (some centres unmarked) [Compound 60]	100 to 1000	> 75000	–	–
CCOC(=O)[C@@H](CC(C)C)NP(=O)(N[C@H](CC(C)C)C(=O)OCC)OC[C@H]1O[C@@H](n2cnc3c(OC)nc(N)nc32)C(C)(O)C1O (some centres unmarked) [Compound 61]	–	> 75000	–	1000 to 10000
CCOC(=O)[C@H](CC(C)C)NP(=O)(N[C@H](CC(C)C)C(=O)OCC)OC[C@H]1O[C@@H](n2cnc3c(OC(C)C)nc(N)nc32)C(C)(O)C1O (some centres unmarked) [Compound 62]	< 100	> 75000	–	–
CCOC(=O)[C@H](CC)NP(=O)(N[C@H](CC)C(=O)OCC)OC[C@H]1O[C@@H](n2cnc3c(OC)nc(N)nc32)C(C)(O)C1O (some centres unmarked) [Compound 63]	100 to 1000	> 75000	–	–
CCOC(=O)[C@H](CC(C)C)NP(=O)(N[C@H](CC(C)C)C(=O)OCC)OC[C@H]1O[C@@H](n2cnc3c(OCC)nc(N)nc32)C(C)(O)C1O (some centres unmarked) [Compound 64]	< 100	> 75000	–	–
CCOC(=O)[C@H](CC(C)C)NP(=O)(N[C@@H](CC(C)C)C(=O)OCC)OC[C@H]1O[C@@H](n2cnc3c(OC)nc(N)nc32)C(C)(O)C1O (some centres unmarked) [Compound 65]	< 100	> 75000	–	–
